# Measurements reported in PMC10333465, “Multi-Function of a New Bioactive Secondary Metabolite Derived from Endophytic Fungus Colletotrichum acutatum of Angelica sinensis” (Journal of Microbiology and Biotechnology, 2022).
# How the values were obtained:
# Assay type in all cases: biochemical
# α-amylase = experiment: colorimetric starch/DNS enzyme assay
# α-glucosidase = experiment: colorimetric pNPG enzyme assay
# [1] = target: T1, DNA topoisomerase I (Human Top I) (Homo sapiens, UniProt P11387); experiment: pBR322 supercoiled DNA relaxation assay, agarose gel ([…])
# T1 construct: gene TOP1
# T1 sequence (P11387 2-765): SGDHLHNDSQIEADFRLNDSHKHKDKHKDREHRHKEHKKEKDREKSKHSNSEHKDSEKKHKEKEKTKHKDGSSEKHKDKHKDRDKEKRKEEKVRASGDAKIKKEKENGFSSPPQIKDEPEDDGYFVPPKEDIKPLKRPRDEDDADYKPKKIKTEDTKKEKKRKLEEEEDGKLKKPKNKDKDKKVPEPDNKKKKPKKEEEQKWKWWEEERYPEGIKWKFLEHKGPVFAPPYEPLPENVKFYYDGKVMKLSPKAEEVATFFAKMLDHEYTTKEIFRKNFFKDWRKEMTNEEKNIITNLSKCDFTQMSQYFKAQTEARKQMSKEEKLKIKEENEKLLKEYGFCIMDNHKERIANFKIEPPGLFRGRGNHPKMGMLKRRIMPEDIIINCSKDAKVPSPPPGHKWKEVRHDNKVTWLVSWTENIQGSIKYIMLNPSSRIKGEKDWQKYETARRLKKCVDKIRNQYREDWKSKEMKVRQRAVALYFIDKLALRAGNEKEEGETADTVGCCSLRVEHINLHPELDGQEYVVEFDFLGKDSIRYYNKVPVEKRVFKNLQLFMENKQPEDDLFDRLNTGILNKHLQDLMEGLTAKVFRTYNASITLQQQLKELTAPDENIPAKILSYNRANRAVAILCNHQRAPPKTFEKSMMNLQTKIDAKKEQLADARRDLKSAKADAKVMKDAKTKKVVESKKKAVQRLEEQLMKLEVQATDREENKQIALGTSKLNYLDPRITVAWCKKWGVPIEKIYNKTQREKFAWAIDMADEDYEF
smiles,measurement,setting,value
"CCCC(O)c1coc(=O)c(C)c1OC (stereo not drawn) [C-HMMP, 5-(1-hydroxybutyl)-4-methoxy-3-methyl-2H-pyran-2-one]",IC50,α-amylase,118.6 µg/mL
same,IC50,α-glucosidase,144.7 µg/mL
same,"pBR322 supercoiled DNA relaxation assay, agarose gel (50, 150, 250 μg/ml)",[1],~ 250 μg/ml
